Measured values taken from patent publication US12252524B2, “GIP/GLP1 co-agonist compounds” (Eli Lilly and Company, priority 2018, dated 2025).
Numbered stars: 1 amine (or outer) side, 2 acyl side, 3 side chain; on linkers, the order of the positions; unused ones are H or OH. Square brackets hold non-standard residues; d marks the D form. Side chains are listed from the residue outwards. Peptide text beside a SMILES is read from it. * marks the point of attachment. C20 diacid = O=C(O)CCCCCCCCCCCCCCCCCCC(=O)*; γGlu = O=C(O)[C@H](CCC(=O)[*:2])N[*:1]; AEEA = NCCOCCOCC(=O)O; Aib = CC(C)(N)C(=O)O

What was measured:
human Gcg receptor = biological target: T1, human Gcg receptor (Homo sapiens, UniProt P47871); assay: [125I]-Glucagon binding (SPA), human Gcg receptor; details: read-out: hGLcgR Ki, nM (SEM, n)
T1 construct: expressed in transfected cells; crude membranes
In short: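 Scintillation counts are taken after membranes and WGA beads incubate and settle for 12 hours at room temperature. Buffer is 25 mM HEPES, pH 7.4, with CaCl2, MgCl2, bacitracin and Tween-20. Ki values, from four-parameter IC50 fits, are geometric means over independent days.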

[1] = biological target: T2, gastric inhibitory peptide receptor (GIPR) (Homo sapiens, UniProt P48546); assay: cAMP pharmacological functional assay in presence of casein, hGIPR; type: cell-based; details: HEK293 cells expressing hGIPR, 0.1% Casein, geometric mean; read-out: hGIPR cAMP Rel EC50 nM (SEM, n)
T2 sequence (P48546 22-466): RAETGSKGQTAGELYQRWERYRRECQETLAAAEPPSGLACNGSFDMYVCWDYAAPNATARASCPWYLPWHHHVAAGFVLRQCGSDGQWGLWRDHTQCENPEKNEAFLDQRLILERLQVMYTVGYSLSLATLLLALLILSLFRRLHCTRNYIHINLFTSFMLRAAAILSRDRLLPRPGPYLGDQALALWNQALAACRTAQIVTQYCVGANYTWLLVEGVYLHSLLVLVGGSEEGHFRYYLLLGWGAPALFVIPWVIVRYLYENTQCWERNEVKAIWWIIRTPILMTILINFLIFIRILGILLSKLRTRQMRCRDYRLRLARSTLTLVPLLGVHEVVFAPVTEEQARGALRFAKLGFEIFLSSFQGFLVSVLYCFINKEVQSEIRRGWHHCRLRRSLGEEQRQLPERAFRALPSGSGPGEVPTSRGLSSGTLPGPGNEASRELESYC

human GIP receptor = biological target: T3, human GIP receptor (Homo sapiens, UniProt P48546); assay: [125I]-GIP binding (SPA), human GIP receptor; details: read-out: hGIPR Ki, nM (SEM, n)
T3 construct: expressed in transfected cells; crude membranes
T3 sequence (P48546 22-466): T2 sequence (P48546 22-466)

[2] = biological target: human GLP-1 receptor (GLP-1R) (Homo sapiens, UniProt P43220); assay: cAMP pharmacological functional assay in presence of casein, hGLP-1R; type: cell-based; details: HEK293 cells expressing hGLP-1R, 0.1% Casein, geometric mean; read-out: hGLP1R cAMP Rel EC50 nM (SEM, n)
human GLP-1R = human GLP-1R (Homo sapiens, UniProt P43220); assay: [125I]-GLP-1 binding (SPA), human GLP-1 receptor; design: expressed in transfected cells; crude membranes; details: read-out: hGLP1R Ki, (nM) (SEM, n)
In short: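 Ki values are geometric means with SEM over independent replicates on different days, derived from IC50s fitted by four-parameter nonlinear regression. The assay used crude cell membranes in HEPES buffer, pH 7.4, containing CaCl2, MgCl2, bacitracin and TWEEN-20.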

Chain of human GLP-1R (P43220 24-463): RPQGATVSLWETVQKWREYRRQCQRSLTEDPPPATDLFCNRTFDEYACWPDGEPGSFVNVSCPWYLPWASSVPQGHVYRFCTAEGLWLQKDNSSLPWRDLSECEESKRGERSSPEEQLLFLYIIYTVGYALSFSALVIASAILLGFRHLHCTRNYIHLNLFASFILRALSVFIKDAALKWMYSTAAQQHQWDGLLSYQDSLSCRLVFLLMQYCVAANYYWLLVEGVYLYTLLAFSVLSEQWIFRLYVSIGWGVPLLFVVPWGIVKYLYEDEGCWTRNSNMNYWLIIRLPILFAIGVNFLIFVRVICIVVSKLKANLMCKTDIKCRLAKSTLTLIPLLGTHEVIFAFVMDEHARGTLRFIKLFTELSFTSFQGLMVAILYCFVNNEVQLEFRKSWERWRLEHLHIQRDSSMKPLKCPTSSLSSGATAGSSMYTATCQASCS
Chain of human GLP-1 receptor (GLP-1R) (P43220 24-463): as above
T1 sequence (P47871 26-477): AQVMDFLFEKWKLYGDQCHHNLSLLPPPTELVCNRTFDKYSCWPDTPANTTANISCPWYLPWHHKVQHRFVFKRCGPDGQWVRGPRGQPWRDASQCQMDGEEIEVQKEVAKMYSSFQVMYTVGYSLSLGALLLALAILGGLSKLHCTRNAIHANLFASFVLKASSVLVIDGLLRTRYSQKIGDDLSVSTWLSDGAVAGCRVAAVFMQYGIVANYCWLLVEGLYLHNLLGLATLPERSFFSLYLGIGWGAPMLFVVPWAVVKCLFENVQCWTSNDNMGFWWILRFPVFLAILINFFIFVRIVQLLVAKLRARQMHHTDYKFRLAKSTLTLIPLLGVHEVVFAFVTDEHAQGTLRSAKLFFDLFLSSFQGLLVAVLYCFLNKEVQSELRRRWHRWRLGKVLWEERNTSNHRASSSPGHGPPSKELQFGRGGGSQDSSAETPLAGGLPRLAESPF

SMILES | Ki (human Gcg receptor) [nM] | EC50 [1] [nM] | Ki (human GIP receptor) [nM] | EC50 [2] [nM] | Ki (human GLP-1R) [nM]
CC[C@H](C)[C@H](NC(=O)[C@H](CCCCN)NC(=O)[C@H](CC(=O)O)NC(=O)[C@H](CC(C)C)NC(=O)[C@H](CC(C)C)NC(=O)[C@@H](NC(=O)[C@H](CO)NC(=O)[C@H](Cc1ccc(O)cc1)NC(=O)[C@H](CC(=O)O)NC(=O)[C@H](CO)NC(=O)[C@@H](NC(=O)[C@H](Cc1ccccc1)NC(=O)[C@@H](NC(=O)CNC(=O)[C@H](CCC(=O)O)NC(=O)C(C)(C)NC(=O)[C@@H](N)Cc1ccc(O)cc1)[C@@H](C)O)[C@@H](C)O)[C@@H](C)CC)C(=O)N[C@@H](C)C(=O)N[C@@H](CCC(N)=O)C(=O)NC(C)(C)C(=O)N[C@@H](C)C(=O)N[C@@H](Cc1ccccc1)C(=O)N[C@H](C(=O)N[C@@H](CCC(=O)O)C(=O)N[C@@H](Cc1ccc(O)cc1)C(=O)N[C@@H](CC(C)C)C(=O)N[C@H](C(=O)N[C@@H](CCC(=O)O)C(=O)NCC(=O)NCC(=O)N1CCC[C@H]1C(=O)N[C@@H](CO)C(=O)N[C@@H](CO)C(=O)NCC(=O)N[C@@H](C)C(=O)N1CCC[C@H]1C(=O)N1CCC[C@H]1C(=O)N1CCC[C@H]1C(=O)N[C@@H](CCCCNC(=O)COCCOCCNC(=O)COCCOCCNC(=O)CC[C@H](NC(=O)CCCCCCCCCCCCCCCCCCC(=O)O)C(=O)O)C(N)=O)[C@@H](C)CC)[C@@H](C)CC [Example 48] (H-Y[Aib]EGTFTSDYSILLDKIAQ[Aib]AFIEYLIEGGPSSGAPPPK([AEEA-AEEA-γGlu-C20 diacid])-NH2; N-terminus assumed) | 111 | 0.168 | 0.074 | 0.691 | 15.7
CC[C@H](C)[C@H](NC(=O)[C@H](CCCCN)NC(=O)[C@H](CC(=O)O)NC(=O)[C@H](CC(C)C)NC(=O)[C@H](CC(C)C)NC(=O)[C@@H](NC(=O)[C@H](CO)NC(=O)[C@H](Cc1ccc(O)cc1)NC(=O)[C@H](CC(=O)O)NC(=O)[C@H](CO)NC(=O)[C@@H](NC(=O)[C@H](Cc1ccccc1)NC(=O)[C@@H](NC(=O)CNC(=O)[C@H](CCC(=O)O)NC(=O)C(C)(C)NC(=O)[C@@H](N)Cc1ccc(O)cc1)[C@@H](C)O)[C@@H](C)O)[C@@H](C)CC)C(=O)N[C@@H](C)C(=O)N[C@@H](CCC(N)=O)C(=O)NC(C)(C)C(=O)N[C@@H](C)C(=O)N[C@@H](Cc1ccccc1)C(=O)N[C@H](C(=O)N[C@@H](CCC(=O)O)C(=O)N[C@@H](Cc1ccc(O)cc1)C(=O)N[C@@H](CC(C)C)C(=O)N[C@H](C(=O)N[C@@H](CCC(=O)O)C(=O)NCC(=O)NCC(=O)N1CCC[C@H]1C(=O)N[C@@H](CO)C(=O)N[C@@H](CO)C(=O)NCC(=O)N[C@@H](C)C(=O)N1CCC[C@H]1C(=O)N1CCC[C@H]1C(=O)N1CCC[C@H]1C(=O)N[C@@H](CO)C(=O)N[C@@H](CCCCNC(=O)COCCOCCNC(=O)COCCOCCNC(=O)CC[C@H](NC(=O)CCCCCCCCCCCCCCCCCCC(=O)O)C(=O)O)C(N)=O)[C@@H](C)CC)[C@@H](C)CC [Example 49] (H-Y[Aib]EGTFTSDYSILLDKIAQ[Aib]AFIEYLIEGGPSSGAPPPSK([AEEA-AEEA-γGlu-C20 diacid])-NH2; N-terminus assumed) | 236 | 0.0868 | 0.087 | 0.597 | 12.3

Now from value to molecule:

Ki (human Gcg receptor) [nM] | EC50 [1] [nM] | Ki (human GIP receptor) [nM] | EC50 [2] [nM] | Ki (human GLP-1R) [nM] | SMILES
11.1 | 0.106 | 0.0463 | 1.03 | 5.65 | CC[C@H](C)[C@H](NC(=O)[C@H](CCCCN)NC(=O)[C@H](CC(=O)O)NC(=O)[C@H](CC(C)C)NC(=O)[C@H](CC(C)C)NC(=O)[C@@H](NC(=O)[C@H](CO)NC(=O)[C@H](Cc1ccc(O)cc1)NC(=O)[C@H](CC(=O)O)NC(=O)[C@H](CO)NC(=O)[C@@H](NC(=O)[C@H](Cc1ccccc1)NC(=O)[C@@H](NC(=O)CNC(=O)[C@H](CCC(=O)O)NC(=O)C(C)(C)NC(=O)[C@@H](N)Cc1ccc(O)cc1)[C@@H](C)O)[C@@H](C)O)[C@@H](C)CC)C(=O)N[C@@H](C)C(=O)N[C@@H](CCC(N)=O)C(=O)NC(C)(C)C(=O)N[C@@H](C)C(=O)N[C@@H](Cc1ccccc1)C(=O)N[C@H](C(=O)N[C@@H](CCC(=O)O)C(=O)N[C@@H](Cc1ccc(O)cc1)C(=O)N[C@@H](CC(C)C)C(=O)N[C@H](C(=O)N[C@@H](CCC(=O)O)C(=O)NCC(=O)NCC(=O)N1CCC[C@H]1C(=O)N[C@@H](CO)C(=O)N[C@@H](CO)C(=O)NCC(=O)N[C@@H](C)C(=O)N[C@@H](CCCCNC(=O)COCCOCCNC(=O)COCCOCCNC(=O)CC[C@H](NC(=O)CCCCCCCCCCCCCCCCCCC(=O)O)C(=O)O)C(=O)N1CCC[C@H]1C(=O)N1CCC[C@H]1C(=O)N[C@@H](CO)C(N)=O)[C@@H](C)CC)[C@@H](C)CC [Example 45] (H-Y[Aib]EGTFTSDYSILLDKIAQ[Aib]AFIEYLIEGGPSSGAK([AEEA-AEEA-γGlu-C20 diacid])PPS-NH2)
133 | 0.172 | 0.0852 | 0.687 | 13.4 | CC[C@H](C)[C@H](NC(=O)[C@H](CCCCN)NC(=O)[C@H](CC(=O)O)NC(=O)[C@H](CC(C)C)NC(=O)[C@H](CC(C)C)NC(=O)[C@@H](NC(=O)[C@H](CO)NC(=O)[C@H](Cc1ccc(O)cc1)NC(=O)[C@H](CC(=O)O)NC(=O)[C@H](CO)NC(=O)[C@@H](NC(=O)[C@H](Cc1ccccc1)NC(=O)[C@@H](NC(=O)CNC(=O)[C@H](CCC(=O)O)NC(=O)C(C)(C)NC(=O)[C@@H](N)Cc1ccc(O)cc1)[C@@H](C)O)[C@@H](C)O)[C@@H](C)CC)C(=O)N[C@@H](C)C(=O)N[C@@H](CCC(N)=O)C(=O)NC(C)(C)C(=O)N[C@@H](C)C(=O)N[C@@H](Cc1ccccc1)C(=O)N[C@H](C(=O)N[C@@H](CCC(=O)O)C(=O)N[C@@H](Cc1ccc(O)cc1)C(=O)N[C@@H](CC(C)C)C(=O)N[C@H](C(=O)N[C@@H](CCC(=O)O)C(=O)NCC(=O)NCC(=O)N1CCC[C@H]1C(=O)N[C@@H](CO)C(=O)N[C@@H](CO)C(=O)NCC(=O)N[C@@H](C)C(=O)N1CCC[C@H]1C(=O)N[C@@H](CCCCNC(=O)COCCOCCNC(=O)COCCOCCNC(=O)CC[C@H](NC(=O)CCCCCCCCCCCCCCCCCCC(=O)O)C(=O)O)C(=O)N1CCC[C@H]1C(=O)N[C@@H](CO)C(N)=O)[C@@H](C)CC)[C@@H](C)CC [Example 46] (H-Y[Aib]EGTFTSDYSILLDKIAQ[Aib]AFIEYLIEGGPSSGAPK([AEEA-AEEA-γGlu-C20 diacid])PS-NH2)
220 | 0.0794 | 0.0568 | 0.0961 | 4.71 | CC[C@H](C)[C@H](NC(=O)[C@H](CC(C)C)NC(=O)[C@H](Cc1ccc(O)cc1)NC(=O)[C@H](CCC(=O)O)NC(=O)[C@@H](NC(=O)[C@H](Cc1ccccc1)NC(=O)[C@H](C)NC(=O)C(C)(C)NC(=O)[C@H](CCC(N)=O)NC(=O)[C@H](C)NC(=O)[C@H](CCCCNC(=O)COCCOCCNC(=O)COCCOCCNC(=O)CC[C@H](NC(=O)CCCCCCCCCCCCCCCCCCC(=O)O)C(=O)O)NC(=O)[C@H](CCCCN)NC(=O)[C@H](CC(=O)O)NC(=O)[C@H](CC(C)C)NC(=O)[C@H](CC(C)C)NC(=O)[C@@H](NC(=O)[C@H](CO)NC(=O)[C@H](Cc1ccc(O)cc1)NC(=O)[C@H](CC(=O)O)NC(=O)[C@H](CO)NC(=O)[C@@H](NC(=O)[C@H](Cc1ccccc1)NC(=O)[C@@H](NC(=O)CNC(=O)[C@H](CCC(=O)O)NC(=O)C(C)(C)NC(=O)[C@@H](N)Cc1ccc(O)cc1)[C@@H](C)O)[C@@H](C)O)[C@@H](C)CC)[C@@H](C)CC)C(=O)N[C@@H](CCC(=O)O)C(=O)NCC(=O)NCC(=O)N1CCC[C@H]1C(=O)N[C@@H](CO)C(=O)N[C@@H](CO)C(=O)NCC(N)=O [Example 50] (H-Y[Aib]EGTFTSDYSILLDKK([AEEA-AEEA-γGlu-C20 diacid])AQ[Aib]AFIEYLIEGGPSSG-NH2)
